Measurements published in US20260014171A1, “COMPOSITION FOR THE USE IN THE TREATMENT OF POLYCYSTIC OVARY SYNDROME” (LO.LI. PHARMA S.R.L., priority 2023, published 2026).

Key:
Assay type in all cases: cell-based
IGFBP-1 [1] = experiment: IGFBP-1 protein quantification by western blot in co-cultured bovine theca and granulosa cells; conditions: Phase 1: FSH (46 h), LH + insulin, then exogenous IGF-1 100 ng/ml 48 h; vs untreated control
Protocol: (§1) The anti-proliferative activity of Dioscorea villosa, Vitamin D, and α-lactalbumin was investigated (alone or in combination) in cultured bovine theca and granulosa cells (co-culture). To investigate the properties of these natural molecules, the inventors evaluated their effect on cell viability, proliferation, and apoptosis.
(§2) Bovine theca and granulosa were co-cultured, (DMEM, High glucose 5% FBS, […], 1% Pen/Strep, 1% Amphotericin B, 1% Glutamine) for 7 days. The cells were grown in petri dishes and treated shortly before reaching 80% confluence. […]
(§3) The expression of insuline like growth factor IGF-1 and IGF-BP1 insulin like growth factor binding protein 1 were both measured by Real Time PCR and western blot, to investigate the effects of the treatment with the raw materials; namely, Dioscorea villosa, Vitamin D and α-lactalbumin alone or in combination.
(§4) The results were measured as 2^−ΔΔCt for the mRNA assay. Both for the Real Time PCR and western blot analyses, the data are expressed as fold increases in relation to the housekeeping genes. Proliferation (ki67 western blot assay) and apoptosis (caspase-9 western blot assay) assessed the expression as per the experimental conditions reported above.
(§5) Co-cultured bovine theca and granulosa cells; grown as described in phase 1. The expression of IGF-1 and IGF-BP1 were analyzed after treatment with Dioscorea villosa. […]

ki-67 [2] = experiment: Proliferation (ki67 western blot assay) in co-cultured bovine theca and granulosa cells
Protocol: as §1, §2, §4, §5
(§6) The results were measured as […] for the mRNA assay. Both for the Real Time PCR and western blot analyses, the data are expressed as fold increases in relation to the housekeeping genes. […]
(§7) The results were measured as […] for the mRNA assay. […]

caspase-9 [3] = experiment: Apoptosis (caspase-9 western blot assay) in co-cultured bovine theca and granulosa cells
Protocol: as §1, §2, §4, §5, §6, §7

IGF-1 [4] = experiment: IGF-1 gene expression by Real Time PCR in co-cultured bovine theca and granulosa cells; conditions: Phase 1: FSH (46 h), LH 1.5 UI/ml + insulin 100 ng/ml 10 min, then exogenous IGF-1 100 ng/ml 48 h; vs untreated control
Protocol: as §1, §2, §3, §4, §5

caspase-9 [5] = experiment: caspase-9 gene expression (mRNA) in co-cultured bovine theca and granulosa cells; conditions: Phase 1: FSH (46 h), LH + insulin, then exogenous IGF-1 100 ng/ml 48 h; vs untreated control
Protocol: as §1, §2, §4, §5, §6, §7

IGF-1 [6] = experiment: IGF-1 protein quantification by western blot in co-cultured bovine theca and granulosa cells; conditions: Phase 1: FSH (46 h), LH + insulin, then exogenous IGF-1 100 ng/ml 48 h; vs untreated control
Protocol: as §1, §2, §3, §4, §5

ki-67 [7] = experiment: ki-67 gene expression (mRNA) in co-cultured bovine theca and granulosa cells; conditions: Phase 1: FSH (46 h), LH + insulin, then exogenous IGF-1 100 ng/ml 48 h; vs untreated control
Protocol: as §1, §2, §4, §5, §6, §7

IGFBP-1 [8] = experiment: IGFBP-1 gene expression by Real Time PCR in co-cultured bovine theca and granulosa cells; conditions: Phase 1: FSH (46 h), LH + insulin, then exogenous IGF-1 100 ng/ml 48 h; vs untreated control
Protocol: as §1, §2, §3, §4, §5

[9] = Phase 1: FSH (46 h), LH + insulin, then exogenous IGF-1 100 ng/ml 48 h, vs untreated control
[10] = Results text: treatment with IGF-1 (48 h)

## IGF-1: exogenous insulin like growth factor IGF-1, 100 ng/ml for 48 h, used as proliferative stimulus
IGFBP-1 [1]
  quantification of IGFBP-1 protein: not significant
ki-67 [2]; [9]
  quantification of ki-67 protein: significant increase
ki-67 [2]; [10]
  proliferative effect: strong proliferative effect
caspase-9 [3]; [9]
  quantification of caspase-9 protein: not significant
caspase-9 [3]; [10]
  rate of apoptosis observed in the cell culture: reduction in the rate of apoptosis
IGF-1 [4]
  gene expression of IGF-1 (mRNA): significant increase
caspase-9 [5]
  gene expression of caspase-9 (mRNA): not significant
IGF-1 [6]
  quantification of IGF-1 protein: significant increase
ki-67 [7]
  gene expression of ki-67 (mRNA): significant increase
IGFBP-1 [8]
  gene expression of IGFBP-1 (mRNA): not significant
